According to article PMC8451604, “Rational formulation engineering of fraxinellone utilizing 6-O-α-D-maltosyl-β-cyclodextrin for enhanced oral bioavailability and hepatic fibrosis therapy” (Drug Delivery, 2021):
Values after ≈ are worked out from the molar mass of the structure shown.

Experiments:
[1] = Oral bioavailability / pharmacokinetic study; set-up: species or system Male Wistar rats; details: male, Wistar, rat, in vivo
Experimental: Pharmacokinetic studies were conducted in Male Wistar rats (180–220 g) supplied by the Center of laboratory animals, Zhengzhou University. The Use Committee of Zhengzhou University (IRB0000861) approved the experimental protocol. In addition, all animal experiments were conducted according to the Guidelines of Animal Experimentation of the Laboratory Animal Center. Rats were acclimatized before experiments and provided free access to food and water.
Rats divided into five groups at random (n = 5) were dosed with the following formulations: intravenous administration of Frax ([…]) or orally given Frax suspension (150 mg/kg) or SBE-β-CD-Frax, HP-β-CD-Frax, and G2-β-CD-Frax (150 mg/kg), respectively. Blood (0.4 mL) was obtained by orbital sinus collection at 0.17, 0.25, 0.75, 1, 1.5, 2, 4, 6, 8, and 10 h post-administration. To determine Frax concentration in plasma, 200 μL methanol, 100 μL acetonitrile, and 20 μL 5% hydrochloric acid were added to rat plasma (100 μL) gradually. Following vortexing and centrifugation (4024.8 g, 10 min), the supernatant was collected, dried by air blowing at room temperature, and reconstituted with 150 μL of the mobile phase. The samples were sonicated and vortexed until homogeneity. After centrifugation, the supernatant (50 μL) was aspirated and injected into HPLC. The standard curve encompassed a linear range of 0.05–10 μg/mL and was used to calculate Frax concentration in plasma. Pharmacokinetic parameters were calculated using DAS software version 3.0 and reported as mean ± standard deviation. The oral absolute and relative bioavailability (Fa and Fr) were calculated using the following Equations (3) and (4): (3) Fa(%)=AUC^testDose^i.v/AUC^i.vDose^test (4) Fr(%)=AUCtest/AUCreference where AUC is the area under the pharmacokinetic curves

[2] = system: CCl4-induced liver fibrosis mice; assay: CCl4-induced liver fibrosis, therapeutic efficacy; type: in vivo, Kunming male mice
Experimental: The Kunming male mice (weight of 28–30 g) were divided into 10 groups (n = 10): normal group, CCl4-induced liver fibrosis group, CCl4 induction treated with Frax or G2-β-CD-Frax treatment groups (5, 10, and 20 mg/kg, respectively), CCl4 induction with colchicine (0.2 mg/kg) treatment group, CCl4 induction with G2-β-CD solution treatment (equivalent to 20 mg/kg of G2-β-CD-Frax) group. The mice in the normal group were treated with olive oil only, while the other groups were intraperitoneally injected with 10% CCl4-olive oil every other week for 10 weeks (5 mL/kg for the first dose and 3 mL/kg for the second starting dose). Drug treatment began on the fourth week of modeling and continued every day for 7 weeks. One day after the last administration, blood in all the groups was immediately harvested for assays of AST and ALT. […] were then sacrificed and livers were collected and divided into two parts for histological examination and Hydroxyproline (HYP) assay, respectively.

[3] = set-up: method as in Ruan et al., 2006; details: ref Ruan et al., 2006; cited from earlier work
[4] = Octanol/water partition coefficient (Log P) measurement; type: physicochemical; details: octanol/PBS (mutually saturated, equal volumes); pH 1.2, 4.5 and 6.8, 37 °C
Experimental: The mixtures were placed in an air bath shaking at 100 rpm at 37 °C for 24 h. The samples were then centrifuged (12,000 rpm, 10 min) for oil/water phase separation. The drug concentration in these two phases was analyzed by HPLC, respectively.

[5] = Phase solubility study of Frax with CDs; type: physicochemical; details: 37 °C; for solubility at 72 h: aqueous with cosolvent or surfactant or cyclodextrin, thermodynamic from solid; for Frax solubility increase: vs water
Experimental: Frax was excessively mixed with increasing molar concentrations (0–350.00 mM) of each CD aqueous solution. […] The samples were subjected to HPLC analysis after centrifugation (4024.8 g, 10 min). Phase solubility profiles were plotted by monitoring Frax concentration as a function of the molar concentration of each CD. Based on the phase solubility curves, we calculated the apparent stability constants (Kc, L/mol) according to Equation (1): (1) Kc=Slope/S0(1−Slope) where S0 is the water solubility of Frax at equilibrium.

[6] = oral 5 mg/kg daily for 7 weeks, vs CCl4 group

CC1=C2C(=O)O[C@@H](c3ccoc3)[C@]2(C)CCC1 [Frax, Fraxinellone]
bioavailability [1]: 0.5%
AUC(0-inf) ([1]; iv, 10 mg/kg): 11800 ± 1430 ng·h/mL
AUC(0-inf) ([1]; po, 150 mg/kg): 970 ± 230 ng·h/mL
Cmax ([1]; po, 150 mg/kg): 490 ± 290 ng/mL
Tmax ([1]; po, 150 mg/kg): 1 ± 0.35 h
collagen in liver tissue (Masson, Sirius Red staining) [2, 6]: no obvious inhibition
levels of liver fibrosis markers AST, ALT and HYP [2, 6]: no significant decrease
effect on liver fibrosis ([2]; oral 20 mg/kg daily for 7 weeks): rather modest effect
intestinal permeability [3]: good intestinal permeability
logP at 24 h [4]: 3.2 ± 0.17
solubility at 72 h ([5]; 8.82 mM G2-β-CD aqueous solution, with 8.82 mM G2-β-CD): 430 µg/mL (≈ 1850 µM)
solubility at 72 h ([5]; 8.82 mM HP-β-CD aqueous solution, with 8.82 mM HP-β-CD): 330 µg/mL (≈ 1420 µM)
solubility at 72 h ([5]; 8.82 mM SBE-β-CD aqueous solution, with 8.82 mM SBE-β-CD): 600 µg/mL (≈ 2580 µM)
solubility at 72 h ([5]; 8.82 mM β-CD aqueous solution, with 8.82 mM β-CD): 310 µg/mL (≈ 1330 µM)
solubility at 72 h ([5]; 350 mM G2-β-CD aqueous solution, with 350 mM G2-β-CD): 12300 µg/mL (≈ 53000 µM)
solubility at 72 h ([5]; 350 mM HP-β-CD aqueous solution, with 350 mM HP-β-CD): 6550 µg/mL (≈ 28200 µM)
solubility at 72 h ([5]; 350 mM SBE-β-CD aqueous solution, with 350 mM SBE-β-CD): 13600 µg/mL (≈ 58400 µM)
Frax solubility increase ([5]; with 8.82 mM G2-β-CD): 5.45 fold
Frax solubility increase ([5]; with 8.82 mM HP-β-CD): 4.18 fold
Frax solubility increase ([5]; with 8.82 mM SBE-β-CD): 7.61 fold
Frax solubility increase ([5]; with 8.82 mM β-CD): 3.93 fold
Frax solubility increase ([5]; with 350 mM G2-β-CD): 156.19 fold
Frax solubility increase ([5]; with 350 mM HP-β-CD): 83.04 fold
Frax solubility increase ([5]; with 350 mM SBE-β-CD): 171.91 fold
